# Measurements: the supplement of paper PMC10307832
# What was measured:
# Assay in all cases: relative viability (nuclei count vs DMSO), 5 days (fraction); higher = more cells survive
# [1] = compound: C[As](C)SC[C@H](NC(=O)CC[C@H](N)C(=O)O)C(=O)NCC(=O)O [Darinaparsin] + Cc1nc(Nc2ncc(C(=O)Nc3c(C)cccc3Cl)s2)cc(N2CCN(CCO)CC2)n1 [Dasatinib] (partner 0.075 µM)
# Summary of the method: (§1)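 Cells from lung cancer lines were seeded into 1536-well plates and, one day later, dosed by pin tool. Treatments were either a single drug or a fixed dose of an anchor drug with five library-drug doses (not always all listed) in √10 steps. After 5 days, nuclei were stained in a one-step fixation (final 0.05% Triton X-100, 1% formaldehyde, 1 ug/ml Hoechst) and counted on 4× images, and relative viability is the treated-to-vehicle nuclei ratio, as the median of duplicate plates.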
# [2] = compound: CC1=C(C=C(C=C1)NC(=O)C2=CC(=CC=C2)C(C)(C)C#N)NC3=CC4=C(C=C3)N=CN(C4=O)C [AZ628] + O=C(CCCCCCC(=O)Nc1ccccc1)NO [Vorinostat] (partner 1 µM)
# Summary of the method: as §1
# [3] = compound: CC1=C(C=C(C=C1)NC(=O)C2=CC(=CC=C2)C(C)(C)C#N)NC3=CC4=C(C=C3)N=CN(C4=O)C [AZ628] + CC(=O)Nc1cccc(-n2c(=O)n(C3CC3)c(=O)c3c(Nc4ccc(I)cc4F)n(C)c(=O)c(C)c32)c1 [Trametinib] (partner 0.02 µM)
# Summary of the method: as §1
# [4] = compound: C1CC2=C(C1)C=C(C=C2)OC3=NC(=C4C(=N3)N(C=N4)CC5=CC=C(C=C5)C6=CC=CC=C6)N[C@@H](CC7=CC=CC=C7)CO [QS11] + Cc1nc(NC(=O)N2CCC[C@H]2C(N)=O)sc1-c1ccnc(C(C)(C)C(F)(F)F)c1 [Alpelisib] (partner 2 µM)
# Summary of the method: as §1
cell line,measurement,setting,value
EPLC-272H,relative viability,[1]; first compound 0.8 µM,0.275
same,relative viability,[1]; first compound 2.53 µM,0.223
same,relative viability,[1]; first compound 8 µM,0.371
same,relative viability,[2]; first compound 0.08 µM,0.557
same,relative viability,[2]; first compound 0.253 µM,0.518
same,relative viability,[2]; first compound 0.8 µM,0.4
same,relative viability,[2]; first compound 2.53 µM,0.332
same,relative viability,[2]; first compound 8 µM,0.274
same,relative viability,[3]; first compound 0.08 µM,0.26
same,relative viability,[3]; first compound 0.253 µM,0.207
same,relative viability,[3]; first compound 0.8 µM,0.222
same,relative viability,[3]; first compound 2.53 µM,0.189
same,relative viability,[3]; first compound 8 µM,0.17
same,relative viability,[4]; first compound 0.08 µM,0.931
same,relative viability,[4]; first compound 0.253 µM,0.934
same,relative viability,[4]; first compound 0.8 µM,1.04
same,relative viability,[4]; first compound 2.53 µM,1.04
same,relative viability,[4]; first compound 8 µM,1.1
H3255,relative viability,[1]; first compound 0.08 µM,0.355
same,relative viability,[1]; first compound 0.8 µM,0.346
same,relative viability,[1]; first compound 2.53 µM,0.317
same,relative viability,[1]; first compound 8 µM,0.338
same,relative viability,[2]; first compound 0.08 µM,0.838
same,relative viability,[2]; first compound 0.253 µM,0.781
same,relative viability,[2]; first compound 0.8 µM,0.846
same,relative viability,[2]; first compound 2.53 µM,0.87
same,relative viability,[2]; first compound 8 µM,0.824
same,relative viability,[3]; first compound 0.08 µM,0.525
same,relative viability,[3]; first compound 0.253 µM,0.413
same,relative viability,[3]; first compound 0.8 µM,0.384
same,relative viability,[3]; first compound 2.53 µM,0.401
same,relative viability,[3]; first compound 8 µM,0.365
same,relative viability,[4]; first compound 0.08 µM,0.782
same,relative viability,[4]; first compound 0.253 µM,0.773
same,relative viability,[4]; first compound 2.53 µM,0.671
same,relative viability,[4]; first compound 8 µM,0.903
HARA,relative viability,[1]; first compound 0.08 µM,0.3
same,relative viability,[1]; first compound 0.8 µM,0.282
same,relative viability,[1]; first compound 2.53 µM,0.232
same,relative viability,[1]; first compound 8 µM,0.259
same,relative viability,[2]; first compound 0.08 µM,0.706
same,relative viability,[2]; first compound 0.253 µM,0.453
same,relative viability,[2]; first compound 0.8 µM,0.405
same,relative viability,[2]; first compound 2.53 µM,0.399
same,relative viability,[2]; first compound 8 µM,0.183
same,relative viability,[3]; first compound 0.08 µM,0.209
same,relative viability,[3]; first compound 0.253 µM,0.168
same,relative viability,[3]; first compound 0.8 µM,0.15
same,relative viability,[3]; first compound 2.53 µM,0.172
same,relative viability,[3]; first compound 8 µM,0.356
same,relative viability,[4]; first compound 0.08 µM,0.691
same,relative viability,[4]; first compound 0.253 µM,0.944
same,relative viability,[4]; first compound 2.53 µM,0.872
same,relative viability,[4]; first compound 8 µM,0.917
HCC-15,relative viability,[1]; first compound 0.08 µM,0.675
same,relative viability,[1]; first compound 0.8 µM,0.562
same,relative viability,[1]; first compound 2.53 µM,0.577
same,relative viability,[1]; first compound 8 µM,0.628
same,relative viability,[2]; first compound 0.08 µM,0.867
same,relative viability,[2]; first compound 0.253 µM,0.728
same,relative viability,[2]; first compound 0.8 µM,0.693
same,relative viability,[2]; first compound 2.53 µM,0.61
same,relative viability,[2]; first compound 8 µM,0.348
same,relative viability,[3]; first compound 0.08 µM,0.334
same,relative viability,[3]; first compound 0.253 µM,0.291
same,relative viability,[3]; first compound 0.8 µM,0.272
same,relative viability,[3]; first compound 2.53 µM,0.25
same,relative viability,[3]; first compound 8 µM,0.243
same,relative viability,[4]; first compound 0.08 µM,0.749
same,relative viability,[4]; first compound 0.253 µM,1.01
same,relative viability,[4]; first compound 2.53 µM,0.936
same,relative viability,[4]; first compound 8 µM,0.731
